Structures can show the parent of a compound that is named as a salt.
What was measured:
[1] = WST-1 cytotoxicity test, SAOS-2; type: cell-based; details: human, SAOS-2 cells, 48 h, WST-1, mean ± SD of three experiments, read-out: relative viability (%) compared to untreated control; for viability at 48 h, 10 µM: SAOS-2, 10 µM; for viability at 48 h, 100 µM: SAOS-2, 100 µM
Procedure: (§1) In this study, the cytotoxic effects of nine new compounds (2, 3, 4, 5, 6, 7, 8, 9, 10) were tested on 10 human cell lines (nine cancer and one non-cancer cell line). The cell lines were treated with each compound at concentrations of 10 µM and 100 µM for 48 h. The proliferation capacity of the treated cells was determined by WST-1 test and compared against the proliferation rate of the untreated control cells (100%).
(§2) The cell lines Jurkat, MOLT-4, A2780, A549, HT-29, PANC-1, HeLa, MCF-7, SAOS-2, and MRC-5 (all purchased from Sigma Aldrich, Czech Republic) were included in this study. All cell lines were maintained according to the provider’s guidelines, and plated and treated in 96-well plates (500 to 30 × 10^3 cells per well). The tested compounds 2, 3, 4, 5, 6, 7, 8, 9, and 10 were dissolved in 0.1% DMSO and kept in 10 mM stock solutions. Before use, the stock solution was diluted in culture media at ratios of 1:100 and 1:1000. The studied cell lines were treated with the compounds 2, 3, 4, 5, 6, 7, 8, 9, and 10 at concentrations of 10 and 100 µM for 48 h. Control cells were tested in culture media with and without DMSO (0.1%). The cells were also treated with 1 µM doxorubicin as a cytotoxicity control.
(§3) The WST-1 (2-(4-iodophenyl)-3-(4-nitrophenyl)-5-(2,4-disulfophenyl)-2H-tetrazolium, monosodium salt) test (Roche, Mannheim, Germany) was used according to the manufacturer’s protocol to determine cell viability in all 10 cell lines 48 h after treatment with the tested compounds. The cells were analyzed in a Tecan Infinite M200 spectrometer (Tecan Group, Männedorf, Switzerland) at 440 nm.

[2] = test system: MOLT-4 cells; assay: Radioprotection in vitro, Annexin V/PI flow cytometry after irradiation; type: cell-based, human; details: 60-min pre-treatment, 1 Gy; for viability at 100 µM: Homo sapiens, MOLT-4, light or radiation study, 24 h following irradiation, irradiated untreated 40%, non-irradiated control 92%, read-out: percentage of viable MOLT-4 cells (Annexin V and PI negative) after irradiation; for radioprotective effect in vitro (in words): 100 μM, MOLT-4
Text: Phosphatidylserine, a major component of the inner leaflet of the cytoplasmic membrane bilayers, is frequently used as an indicator of cell death. The externalization of this phospholipid can be detected through Annexin V, which binds to phosphatidylserine in the presence of calcium. Cell viability was quantified by Annexin V-Alexa Fluor® 488/propidium iodide (PI) staining and flow cytometry analysis to determine whether the tested compounds could prevent radiation-induced cell death in MOLT-4 cells. The percentage of viable cells was 92% for non-irradiated control (0.1% DMSO vehicle) and 40% for untreated irradiated cells (1 Gy) (Figure 2A).
Fresh 50 mM stock solutions of the compounds were prepared in DMSO (Sigma-Aldrich, St. Louis, MO, USA) before use in the study. For the radioprotection experiments, MOLT-4 cells were treated with 100 μM solutions of the novel compounds and irradiated after 60 min with a ^60Co γ-ray source (Chisotron Chirana, Prague, Czech Republic). The non-irradiated and irradiated control cells were treated with DMSO vehicle only (0.1%) and handled in parallel with the experimental cells. Non-irradiated control cells were handled in the same manner. Cell viability was determined by flow cytometry using an Alexa Fluor® 488 Annexin V/Dead Cell Apoptosis kit (Life Technologies, Grand Island, NY, USA) according to the manufacturer’s instructions. The Alexa Fluor® 488 Annexin V/Dead Cell Apoptosis kit employs the property of Alexa Fluor® 488 conjugated to Annexin V to bind to phosphatidylserine in the presence of Ca^2+, and the property of propidium iodide (PI) to enter cells with damaged cell membranes and bind to DNA. Measurement was performed using a CyAn (Beckman Coulter, Miami, FL, USA) flow cytometer. Listmode data was analyzed with the Kaluza Analysis v1.3 software (Beckman Coulter, Miami, FL, USA).

[3] = test system: 10 human cell lines (nine cancer and one non-cancer cell line); assay: WST-1 cytotoxicity test, statements over all cell lines; type: cell-based; details: 100 µM, 48 h, studied cell lines
Procedure: as §1, §2, §3

Row | Structure (SMILES) | viability at 48 h, 10 µM [1] [%] | viability at 48 h, 100 µM [1] [%] | viability at 100 µM [2] [%] | cytotoxic effect (in words) [3] | radioprotective effect in vitro (in words) [2]
1 | Cc1cc(OCC(O)CN2CCN(CCO)CC2)ccc1Cl.Cl.Cl (stereo not drawn) [Compound 4, 1-(4-chloro-3-methylphenoxy)-3-(4-(2-hydroxyethyl)piperazin-1-yl)propan-2-ol dihydrochloride] | 99 ± 6 | 88 ± 4 | 61 | no significant cytotoxic effects | –
2 | Cl.Cl.Cl.OCCN1CCN(CCCNc2ccccc2)CC1 [Compound 5, 2-(4-(3-(phenylamino)propyl)piperazin-1-yl)ethanol trihydrochloride] | 96 ± 4 | 111 ± 6 | 59 | no significant cytotoxic effects | did not show statistically significant radioprotective effect
3 | Cl.Cl.Cl.OCCN1CCN(CCCNc2cccc3ccccc23)CC1 [Compound 6, 2-(4-(3-(naphthalen-1-ylamino)propyl)piperazin-1-yl)ethanol trihydrochloride] | 94 ± 6 | 111 ± 4 | 69 | no significant cytotoxic effects | –
4 | COc1ccc(NCCCN2CCN(CCO)CC2)cc1.Cl.Cl.Cl [Compound 7, 2-(4-(3-((4-methoxyphenyl)amino)propyl)piperazin-1-yl)ethanol trihydrochloride] | 102 ± 7 | 109 ± 2 | 64 | no significant cytotoxic effects | –
5 | OCCN1CCN(CC(O)CN2CCN(CCO)CC2)CC1 [Compound 8, 1.3-bis [4-(2-hydroxyethyl)piperazin-1-yl)propan-2-ol tetrahydrochloride] | 102 ± 6 | 87 ± 7 | 57 | no significant cytotoxic effects | –
6 | Cl.Cl.OC(CNc1ccccc1)CNc1ccccc1 [Compound 9, 1,3-bis(phenylamino)propan-2-ol dihydrochloride] | 106 ± 2 | 90 ± 4 | 34 | no significant cytotoxic effects | no significant radioprotective effect
7 | Cl.Cl.Cl.OCCN1CCN(CC(O)CNc2ccccc2)CC1 (stereo not drawn) [Compound 10, 1-(phenylamino]-3-[4-(2-hydroxyethyl)piperazin-1-yl)propan-2-ol trihydrochloride] | 97 ± 6 | 102 ± 2 | 51 | no significant cytotoxic effects | –

Reference: publication PMC7038073, “Substituted Piperazines as Novel Potential Radioprotective Agents” (Molecules, 2020)
